{"source": "paper PMC8466300", "about": "“Investigating the Central Nervous System Disposition of Actinomycin D: Implementation and Evaluation of Cerebral Microdialysis and Brain Tissue Measurements Supported by UPLC-MS/MS Quantification” (Pharmaceutics, 2021)", "assay": "Reverse-phase UPLC retention relative to actinomycin D", "format": "physicochemical", "settings": "Peptide BEH C18 300 Å, gradient 40–100% ACN + 0.1% FA, 60 °C", "method": "The injected sample volume was 20 µL.\nFor chromatography optimization we tested reverse phase columns (C18 and C4) due to actinomycin D´s high lipophilicity. We used reverse phase material with a large pore width of 300 Å because large pore widths usually foster optimal mass transfer kinetics for macromolecules. Chromatographic peak shape and separation performed better on the C18 column. In accordance with the high lipophilicity of actinomycin D, a gradient from 40–100% eluent B was found optimal and yielded peaks with a width at baseline of 6 s (Figure 2)."}
{"substance": "Actinomycin C", "values": [{"measurement": "shift in reverse-phase retention relative to actinomycin D", "result": "only a minimal lipophilic shift"}]}
{"substance": "7-amino actinomycin D", "values": [{"measurement": "shift in reverse-phase retention relative to actinomycin D", "result": "large hydrophilic shift in retention time"}]}
